Data: publication PMC11982498 (Redox Biology, 2025)
pKd: −log10 of the molar value.

Tests used:
[1] = tested on: bio-BCL-2 (BCL-2 IM) (DNA, i motif) CAGCCCCGCTCCCGCCCCCTTCCTCCCGCGCCCGCCCCT; test: SPR; settings: K+ 100 mM; 20 mM MES, pH 5.5, 25 °C
[2] = target: BCL-2 gene promoter i-motif; test: SPR binding to BCL-2 promoter i-motif; settings: MES buffer pH 5.5, 25 °C
Description: SPR measurement was performed on a ProteOn XPR36 protein interaction array system (Bio-Rad Laboratories, Hercules, California, USA) using a Neutravidin-coated GLH sensor chip. BCL-2 i-motif binding analysis was performed following a published method without significant modification. For immobilization, 5′-biotin-labeled DNA oligomers at 800 nM annealed in 1 × MES buffer at pH 5.5 by heating at 95 °C for 5 min, were attached to a reptavidin-coated sensor chip. Compounds were prepared through serial dilution with flowing buffer (20 mM MES, 100 mM KCl, pH 5.5 for i-motif) in at least 6 concentrations, which were simultaneously injected at a flow rate of […] for a 120 s of association phase, followed by 250 s of dissociation phase at 25 °C. Langmuir model was used for fitting kinetic data, which was analyzed with ProteOn manager software. KD values were determined through equation KD = kd/ka. Compound A22 was used as a positive control, and other compounds were selected as candidates only if their KD values for binding to BCL-2 i-motif were similar to that of A22.

[3] = target: T1, Aβ1-42 (Homo sapiens, UniProt P05067); test: Congo red binding assay; format: biochemical; settings: 20 μM compound, 72 h
T1 construct: Aβ1-42 was purchased from Gill Biochemicals Ltd (Shanghai, China); purchased Gill Biochemicals Ltd (Shanghai, China)
Description: (§1) A total of 30 μM Congo red (Aladdin, Shanghai, China) solution (20 mM potassium phosphate, 50 mM NaCl, pH 7.4) was prepared and filtered with a 0.45 μm filter. The Aβ1-42 solutions (30 μM) were co-incubated with B14 (20 μM), A22 (20 μM), or Curcumin (20 μM) at 37 °C protected from light for 72h. The Aβ1-42 solution was mixed with equal volume of Congo red solution, followed by incubation for 30 min. A spectral region from 400 nm to 650 nm was measured by using a UV–vis spectrophotometer (AoE, China).
as §1, with “red” for “red (Aladdin, Shanghai, China)”, “μM) and” for “μM), A22 (20 μM), or”, “solution and incubated” for “solution, followed by incubation”, “analyzed” for “measured”, “UV-vis” for “UV–vis”

[4] = target: T1, Aβ1-42; test: Dot blot of Aβ1-42 fibril aggregation; format: biochemical; settings: 20 μM compound, 24 h
Description: After incubation at 37 °C for 24 h, 10 μL aliquots of 20 μM Aβ1-42 reaction mixtures were spotted onto nitrocellulose membranes. Membranes were blocked for 2 h with 5 % non-fat milk in TBS. After washing, membranes were incubated with the anti-Aβ fibril antibody (1:1,000, CST, USA) dissolved in TBS containing 3 % bovine serum albumin (BSA, Beyotime, Jiangsu, China) and 0.01 % Tween-20 (Solarbio, Beijing, China), and developed using an alkaline-phosphatase anti-rabbit secondary antibody (1:5,000, Proteintech, China). The bands were then detected using an enhanced chemiluminescence (ECL) kit (Millipore, USA).
After incubation at 37 °C for 24h, 10 μL aliquots of 20 μM Aβ1-42 reactions were spotted onto nitrocellulose membranes. The membranes were blocked for 2 h with 5% non-fat milk in TBS. After washing, the membranes were incubated with the anti-Aβ fibril antibody (1:1000 dilution) dissolved in TBS containing 3% BSA and 0.01% Tween-20, and then developed using an alkaline-phosphatase antirabbit secondary antibody (1:5000 dilution). Invitrogen's Western Breeze Chemiluminescent kit was used to visualize the protein dots, and these dots were imaged using a FUJIFILM Luminescent Image Analyzer LAS-1000CH.

[5] = target: T1, Aβ1-42; test: Thioflavine T fluorescence spectroscopy assay (time course to 96 h); format: biochemical; settings: 20 μM compound, Aβ1-42 incubated for 96 h
Description: (§2) The Aβ1-42 solutions (100 μM) were co-incubated with B14 (20 μM) or Curcumin (20 μM) at 37 °C protected from light for 96 h. 30 μL of Aβ1-42 solution was taken at different time points (0 h, 10 h, 24 h, 48 h, 72 h, 96 h), mixed fully with 400 μL of ThT solution (15 μM), and incubated in the dark for 30 min. The fluorescence signal was recorded by using a Cary Eclipse fluorescence spectrophotometer (Varian, USA) with the following setting: excitation wavelength at 440 nm, emission wavelength at 480 nm, and slit width of 20 nm.
as §2, with “μM) and” for “μM) or”, “Aβ1-42 solutions were” for “Aβ1-42 solution was”, “by” for “by using”, “with” for “with the following setting:”

T1 sequence (P05067 672-713 limits assumed): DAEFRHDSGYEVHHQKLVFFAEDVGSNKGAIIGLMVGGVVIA

SMILES | KD [1] [µM] | pKd [2] | other results
CN1CCN(CCCNc2ccc3c(c2)c(=O)c2ccccc2n3-c2ccc3occc3c2)CC1 [Compound A4] | > 50 | < 4.30 | –
O=c1c2ccccc2n(-c2ccc3occc3c2)c2ccc(NCCN3CCNCC3)cc12 [Compound A3] | > 50 | < 4.30 | –
O=c1c2ccccc2n(-c2ccc3occc3c2)c2ccc(NCCN3CCOCC3)cc12 [Compound A6] | > 50 | < 4.30 | –
COc1cc(/C=C/C(=O)CC(=O)/C=C/c2ccc(O)c(OC)c2)ccc1O [Curcumin, reference compound] | – | – | absorbance of Congo red in the Aβ1-42 sample [3]: some inhibitory effect, but much lower than B14; formation of Aβ fibers (dot blot) [4]: relatively less significant effect compared with B14; decrease of ThT fluorescence intensity [5]: 20.83 ± 1.68%
CN(C)CCNc1ccc2c(c1)c(=O)c1ccccc1n2-c1ccc2occc2c1 [Compound A8] | > 50 | < 4.30 | –
CN(C)CCCNc1ccc2c(c1)c(=O)c1ccccc1n2-c1ccc2occc2c1 [Compound A2] | > 50 | < 4.30 | –
CC1CCN(C=CC(=O)Nc2ccc3c(c2)c(=O)c2ccccc2n3-c2ccc3occc3c2)CC1 [Compound A12] | – | < 4.30 | –
O=C(CCCN1CCOCC1)Nc1ccc2c(c1)c(=O)c1ccccc1n2-c1ccc2occc2c1 [Compound A11] | > 50 | < 4.30 | –
CCN(C=CC(=O)Nc1ccc2c(c1)c(=O)c1ccccc1n2-c1ccc2occc2c1)CC [Compound A13] | – | < 4.30 | –
CN1CCN(CCC(=O)Nc2ccc3c(c2)c(=O)c2ccccc2n3-c2ccc3occc3c2)CC1 | > 50 | – | –
CN(C)C=CC(=O)Nc1ccc2c(c1)c(=O)c1ccccc1n2-c1ccc2occc2c1 [Compound A14] | – | < 4.30 | –
O=C(CCN1CCOCC1)Nc1ccc2c(c1)c(=O)c1ccccc1n2-c1ccc2occc2c1 [Compound A16] | – | < 4.30 | –
O=c1c2ccccc2n(-c2ccc3occc3c2)c2ccc(NCCCN3CCCC3)cc12 [Compound A7] | > 50 | < 4.30 | –
CN(C)CCC(=O)Nc1ccc2c(c1)c(=O)c1ccccc1n2-c1ccc2occc2c1 | > 50 | – | –
CCN(CC)CCCNc1ccc2c(c1)c(=O)c1ccccc1n2-c1ccc2occc2c1 [Compound A1] | – | < 4.30 | –
CCN(CC)CCNc1ccc2c(c1)c(=O)c1ccccc1n2-c1ccc2occc2c1 [Compound A9] | 34.1 | 4.47 | –
CCN(CC)CCC(=O)Nc1ccc2c(c1)c(=O)c1ccccc1n2-c1ccc2occc2c1 | > 50 | – | –
CN1CCN(C=CC(=O)Nc2ccc3c(c2)c(=O)c2ccccc2n3-c2ccc3occc3c2)CC1 [Compound A15] | – | < 4.30 | –
O=c1c2ccccc2n(-c2ccc3occc3c2)c2ccc(NCCCN3CCOCC3)cc12 [Compound A5] | > 50 | < 4.30 | –
CN1CCN(CCCNc2ccc3c(c2)c(=O)c2cc(NCCCN4CCN(C)CC4)ccc2n3-c2ccc3occc3c2)CC1 | > 50 | – | –
CC1CCN(CCC(=O)Nc2ccc3c(c2)c(=O)c2ccccc2n3-c2ccc3occc3c2)CC1 | > 50 | – | –
O=c1c2ccccc2n(-c2ccc3occc3c2)c2ccc(NCCc3ccccn3)cc12 [Compound A10] | > 50 | < 4.30 | –

More lines, main results first:

KD [1] [µM] | pKd [2] | SMILES | other results
> 50 | < 4.30 | O=c1c2cc(NCCCN3CCOCC3)ccc2n(-c2ccc3occc3c2)c2ccc(NCCCN3CCOCC3)cc12 [Compound B5] | –
> 50 | < 4.30 | O=c1c2cc(NCCN3CCOCC3)ccc2n(-c2ccc3occc3c2)c2ccc(NCCN3CCOCC3)cc12 [Compound B6] | –
> 50 | < 4.30 | CN(C)CCNc1ccc2c(c1)c(=O)c1cc(NCCN(C)C)ccc1n2-c1ccc2occc2c1 [Compound B8] | –
– | < 4.30 | CN1CCN(CCCNc2ccc3c(c2)C(=O)c2cc(NCCCN4CCN(C)CC4)ccc2C3c2ccc3occc3c2)CC1 [Compound B4] | –
> 50 | < 4.30 | O=c1c2cc(NCCCN3CCCC3)ccc2n(-c2ccc3occc3c2)c2ccc(NCCCN3CCCC3)cc12 [Compound B7] | –
> 50 | < 4.30 | CCN(CC)CCC(=O)Nc1ccc2c(c1)c(=O)c1cc(NC(=O)CCN(CC)CC)ccc1n2-c1ccc2occc2c1 [Compound B13] | –
> 50 | < 4.30 | CN(C)CCCNc1ccc2c(c1)c(=O)c1cc(NCCCN(C)C)ccc1n2-c1ccc2occc2c1 [Compound B2] | –
> 50 | < 4.30 | O=C(CCN1CCCC1)Nc1ccc2c(c1)c(=O)c1cc(NC(=O)CCN3CCCC3)ccc1n2-c1ccc2occc2c1 [Compound B12] | –
> 50 | < 4.30 | CCN(CC)CCNc1ccc2c(c1)c(=O)c1cc(NCCN(CC)CC)ccc1n2-c1ccc2occc2c1 [Compound B9] | –
> 50 | < 4.30 | O=C(CCCN1CCOCC1)Nc1ccc2c(c1)c(=O)c1cc(NC(=O)CCCN3CCOCC3)ccc1n2-c1ccc2occc2c1 [Compound B11] | –
> 50 | < 4.30 | O=c1c2cc(NCCN3CCNCC3)ccc2n(-c2ccc3occc3c2)c2ccc(NCCN3CCNCC3)cc12 [Compound B3] | –
– | < 4.30 | CCN(CC)CCCNc1ccc2c(c1)c(=O)c1cc(NCCCN(CC)CC)ccc1n2-c1ccc2occc2c1 [Compound B1] | –
> 50 | < 4.30 | O=c1c2cc(NCCc3ccccn3)ccc2n(-c2ccc3occc3c2)c2ccc(NCCc3ccccn3)cc12 [Compound B10] | –
